Broadly, the IC50 is the point on the concentration scale where inhibition reaches its midpoint. Usually EC50 stands for the concentration at which the effect is half-maximal. High values mean weaker potency, low ones greater potency.

Experimental findings from US12661338B2, “Heterocyclic compounds as modulators of beta-catenin / TCF4 interaction” (AGENCY FOR SCIENCE, TECHNOLOGY AND RESEARCH, priority 2019, dated 2026) are described below.

Like-named read-outs stand apart in the source and are kept apart here. Some results are limits rather than exact numbers.

For data set [1], the system named is Wnt target genes in HCT116 CRC cells. Briefly: Expression of beta-catenin (CTNNB1) and Wnt target genes in HCT116 CRC cells. Format: cell-based. The procedure: The effects of the GB1874 analogues were tested on the expression of Wnt target genes in HCT116 CRC cells.
Data set [2] deals with Hippo pathway TEAD reporter cells. As to the kind of experiment: Hippo signalling TEAD reporter dose response. The format is cell-based. The following applies: 24 hr, inhibition of the Hippo pathway, read-out: IC50 Hippo. How it is done:
The Hippo TEAD reporter cells were seeded as 100,000 cells in 100 μL assay medium per well in 96-well plates (Corning cat. #3903, Falcon cat. #353072). The assay medium consists of the growth medium without G-418. The next day, 5-fold dilutions of the compounds in DMSO were added to the cells at a final concentration of 1% DMSO. After 24 hr incubation, the viability of the cells was determined with CCK-8 cell viability reagent while the luciferase reporter activity was determined with Steady-Glo luciferase reagent.
(§1) The average signal from DMSO treated wells was calculated for each plate, and the signal from each treatment well was normalized against the average DMSO signal from the respective plate. The normalized values were plotted against the concentrations tested using GraphPad Prism 5, and the EC50 values were determined through either three- or four-parameter nonlinear regression.

Data set [3] deals with HCT116 cells. As to the kind of experiment: Colony formation assay. Format: cell-based. The following applies: HCT116, 30 μM, 7 days. The procedure:
FIG. 4 depicts the inhibit growth by hit compounds and their effects on stemness of Wnt driven cells. (FIG. 4A) Growth curves of HCT116 cells treated daily with compounds at 10 μM. One-way repeated measures ANOVA with Dunnett's multiple comparison test was carried out to determine the significance between compound treatment and DMSO control. *P<0.05, ***P<0.001. (FIG. 4B) Effects of hit compounds on colony formation of HCT116 cells. HCT116 cells were grown in 6-well plates and treated with either DMSO or the compounds at 30 μM for 7 days, following which the cells were fixed and stained with crystal violet. The number of colonies obtained were counted. Two-tailed Student's t-test was carried out between compound treatment and DMSO control. ***P<0.001. (FIG. 4C) Effects of hit compounds on spheroid formation of HCT116 cells. HCT116 cells were grown in ultra-low attachment 96-well plates and treated with either DMSO or the compounds at 30 µM for 14 days, following which the number of spheroids ≥200 μm in size was determined. Two-tailed Student's t-test was carried out between compound treatment and DMSO control. ***P<0.001, **P<0.01. Scale bar represents 1 mm. (FIG. 4D) NSG mice xenografted with HCT116 cells were treated with vehicle control (n=6) or 50 mg/kg GB1874 (n=6) via i.p. every other day for 2 weeks. Tumor volumes were monitored over time. […]

Data set [4] deals with HCT116 xenografts. As to the kind of experiment: Mouse xenograft and compound treatment. Format: in vivo. The following applies: NSG mice, 50 mg/kg every other day i.p. How it is done:
HCT 116 cells (1×10^6 cells per site) and were implanted subcutaneously into the right flanks of 5-7 weeks old NSG (NOD scid gamma) (Jackson Laboratory, stock no. 005557) mice. When tumours reached a size of 60-100 mm^3 in volume, the animals were randomised to either the treatment or control group. Mice in the treatment group were administered with compound GB1874 at 50 mg/kg every other day via intraperitoneal injection. Simultaneously animals in the control group were administered with the diluent in the absence of compound. Compound GB1874 was prepared by dissolving it in DMSO to a concentration of 60 mg/mL and diluting it in 5% PEG 300, 5% Tween-80 in saline to a final concentration of 3 mg/mL, 5% DMSO. The length and width of tumours were measured by caliper once every 2 days. Tumour volumes were estimated using the following modified ellipsoidal formula: Tumour volume=½(length×width^2). Mice were euthanized when tumours in the control group reaches 2000 mm^3.

Data set [5] relates to Wnt signalling (TOPFlash reporter, STF cells). Briefly: Wnt STF TOPFlash reporter dose response (Wnt3A-stimulated). Format: cell-based. The procedure: Wnt STF reporter cells (HEK 293 cells stably transfected with TOPFlash reporter) and STF3A reporter cells (STF cells with constitutive secretion of Wnt3A) were kind gifts from David Virshup (Duke-NUS Graduate Medical School, Singapore). HCT116, DLD-1, and SW480 cell lines were obtained from ATCC. The Hippo pathway TEAD reporter (cat. #60618) and Myc signalling pathway reporter (cat. #60520) cells lines were purchased from BPS Bioscience, Inc.
The Wnt STF reporter cells were seeded as 20,000 cells in 100 μL culture medium per well in 96-well plates (Corning cat. #3903, Falcon cat. #353072). The next day, 5-fold dilutions of the compounds in DMSO were added to the cells at a final concentration of 1% DMSO. The cells were also stimulated with 500 ng/mL recombinant human Wnt3A (RnD systems, cat. #5036-WN-010). After 24 hr incubation, the viability of the cells was determined with cell counting kit-8 (CCK-8, Dojindo cat. #CK04) cell viability reagent according to the manufacturer's protocol while the TOPFlash reporter activity was determined with Steady-Glo luciferase reagent.
as §1

In data set [6] the test system is CRC948. As to the kind of experiment: Viability of primary patient-derived colorectal cancer cell line. Format: cell-based.
For data set [7], the system named is CRC2255. The description is as above. Format: cell-based.
The test system of data set [8] is CRC1463. Described as above. The format is cell-based.

Take `CCc1ccc(OCc2nnc(SC3CCCC3=O)n2C(C)c2ccccc2)cc1` (stereo not shown) [GB1874]: the “beta-catenin (CTNNB1) gene expression” value in data set [1] is “lesser effect”. In data set [1], the “expression of Wnt target genes AXIN2, BIRC5, BMP4, CCND1” value was “potently inhibit Wnt target genes”. The IC50 is above 100 µM in data set [2]; 11 µM in data set [5] (Table 1, STF reporter cells, 500 ng/mL Wnt3A, 24 hr, read-out: IC50 Wnt (STF)); 6.8 µM in data set [5] (Table 3, STF reporter cell line, read-out: STF Inhibition IC50); 6.8 µM in data set [5] (unit M, read-out: STF IC50). For the same compound, the colony forming efficiency result in data set [3] was “markedly reduce survival of the cancer stem-like cells”. Besides, the “expression of cyclin D1 and Ki67 in xenograft tumours (IHC)” value in data set [4] was “reduction in the expression of Wnt target gene, cyclin D1, as well as the proliferation marker, Ki67”. Further, the “systemic toxicity in the mice (body weight)” value in data set [4] (2 weeks) is recorded as “minimal systemic toxicity”. The “growth of HCT116 xenografts (tumour volume)” value in data set [4] (2 weeks, 50 mg/kg) was “effectively inhibited the growth of HCT116 xenografts in vivo”. Also, the results for the EC50 in data set [6], in data set [7] and in data set [8] were 17 µM, 20 µM and 27 µM, respectively.
